Values quoted from earlier work in patent publication US20260345597A1, “LONG-ACTING AND SUSTAINED-RELEASE PREPARATION COMPOSITION OF LUMATEPERONE AND PREPARATION METHOD THEREOF” (SICHUAN KELUN PHARMACEUTICAL RESEARCH INSTITUTE CO., LTD., priority 2023, published 2026).

System: patients with schizophrenia
Conditions: background

CN1CCN2c3c(cccc31)[C@@H]1CN(CCCC(=O)c3ccc(F)cc3)CC[C@@H]12 [lumateperone]
adverse reactions such as weight gain and abnormal lipid metabolism: less likely to cause adverse reactions such as weight gain and abnormal lipid metabolism | effect on symptoms of schizophrenia (patients with schizophrenia): alleviating positive symptoms while improving negative symptoms, depressive symptoms, and social functioning | safety and tolerability profile (patients with schizophrenia): superior safety and tolerability profiles
